Laboratory results: patent EP2563337B1, “CARRIER AND TARGETING SYSTEM COMPRISING A SIOSOMAL COMPOSITION FOR INTRACELLULAR DELIVERY AND TARGETING OF ACTIVE SUBSTANCE” (Salama, Zoser B., priority 2010, dated 2011)
Several values for one entry are separate records, joined by “and”; a condition that tells them apart may be missing. Equal values may be shown once.

Columns and labels:
[1] = Encapsulation efficiency of doxorubicin hydrochloride in siosomes (absorbance at 480 nm after gel filtration); assay type: physicochemical
Protocol: A doxorubicin hydrochloride solution at 10 mg/ml was prepared using physiological saline. The predetermined amount of the doxorubicin hydrochloride solution was added to the sugar siosome dispersion using the cationic organosilicon compounds such as 1.2-(Dimethyldecylsilyl)ethyl-beta-D-glucosamin, 2.2-(Dimethyloctylsilylcholin)ethyl-beta-D-glucopyranosid and/or 1.2-(DiN,N,N,trimethylammoniadecylsilyl)ethyl-beta-D-glucopyranosid and the mixture was adjusted to pH 7.4, using 1 N NaOH or saturated sodium hydrogencarbonate and the mixture was stirred at 65°C for 30 minutes the thereby introduce the doxorubicin hydrochloride in the siosomes.
After doxorubicin hydrochloride introduction, the sample was cooled in an ice bath. Gel filtration was conducted using a column (Sepharose 4, fast flow, having a diameter of 2.8 cm and a length of 20 cm, fully substituted with 10% sucrose (pH 6.5)) to remove the doxorubicin hydrochloride that had not been introduced in the siosomes.
The amount of the sugar silanes in the siosomes, the amounts of the doxorubicin hydrochloride encapsulated in the siosomes and the siosomes themselves were measured by the same methods as in the above examples.
Concentration of the doxorubicin hydrochloride encapsulated in the siosomes was determined by measuring absorbance at 480 nm, using a spectrophotometer for the solution prepared by adding 2 ml of methanol to 40 µl of the doxorubicin siosomes. An alternative HPLC-based assay has also been used for the quantification of the doxorubicin in the formulations.
The above procedures described in example 16 were employed to prepare the carrier siosomes systems in this example. According to these methods of preparation, a dispersion of each of the following organo-silicon compounds were prepared, using doxorubicin hydrochloride solutions at […]. • Sil 8.1: Decyldimethylsilyl-α-D-galactopyranosid • Sil 9.1: Dodecyldimethylsilyl-α-D-glucopyranosid • SIL 15: 1-O-Dioctadecylsilyl-di(2,3,4,6-O-tetracetyl-β-D-galactopyranosid) • SIL 14: 1-o-Dioctadecylsilyl-di(2,3,4,6-O-tetracetyl-β-D-glucopyranosid)1-o- • SIL17: Didodecylsilyl-di(2,3,4,6-O-tetracetyl-β-D-glucopyranosid) • SIL18: Tridodecylsilyl-(2,3,4,6-O-tetracetyl-β-D-glucopyranosid) • Sil22.1 Di(octadecanoyloxy)dimethylsilan
The following parameters have been determined: 1 Physico chemical properties 2 Encapsulated efficiency of doxorubicin 3 Stability 4 Particle size distribution prior to lyophilisation and after dehydration using sterile water for injection 5 Release profile

[2] = for Particle size range of the Doxorubicin-siosomes (nm): Example 18: doxorubicin-siosomes prepared from the single organosilicon compound; for Particle size (nm): Example 19: doxorubicin-siosomes from organosilicon compounds and combinations
Protocol: The siosome size was measured using Zetasizer (Malvern Instruments).
The obtained test samples were analyzed using a Zetasizer from Malvern to measure the particle size of the Siosomes® and its concentration (via determination of the count rate which related to the sample quality and concentration).
The Zetasizer from Malvern performs particle size measurements using a process called Dynamic Light Scattering (DLS). Dynamic Light Scattering (also known as PCS - Photon Correlation Spectroscopy) measures Brownian motion and relates this to the size of the particles. It does this by illuminating the particles with a laser and analyzing the intensity fluctuations in the scattered light. If the particles or molecules are illuminated with a laser, the intensity of the scattered light fluctuates at a rate that is dependent upon the size of the particles as smaller particles are "kicked" further by the solvent molecules and move more rapidly.

[3] = Intracellular distribution of Cis-Oxoplatin within the rat liver, total platinum in liver homogenate and fractions; assay type: in vivo; settings: rats, 1.5 mg Cis-Oxoplatin encapsulated in Siosomes of the compound, intravenous, 3 hours after administration
Excerpt: • 1. The objective of the study to assess the intracellular distribution of Cis-Oxoplatin (as model drug molecule) in rat liver using Cis-Oxoplatin encapsulated in Siosomes®, using the following organosilicon compounds: • a. Sugar Organosilicon Compound: Didodecylsilyi-di(2,3,4,6-O-tetraacetyl-β-D-glucopyranosid (SIL 17) • b. Cationic Sugar Organosilicon Compound: 2.2-(Dimethyloctylsilylcholin)ethyl- β-D-glucopyranosid (SIL62) • c. Anionic Sugar Organosilicon Compound: 2-(Dimethyidecylsilyl)ethyl-β-D-glucopyranosidsulfate (SIL56) • d. Zwitterionic Sugar Organosilicon Compound: 2-(N,N,N, trimethylammonianonaylsilyl)ethyl- P-D-glucopyranosidsulfate (SIL66) • e. PEGylated Organosilicon Compound: 2-(Dimethyloctylsilylcholin)ethyl-β-D-PEG-acetylglucosaminether (SIL54) • 2. The different Siosomes® using each of the above mentioned organosilicon compounds have been prepared according to the procedures of this invention. The particle size range of the Siosomes® was 120-300 nm.
The Platinum-Siosomes®-Complex formulations were supplied in vials containing 10 mg each. Before administration, the contents of each vial was dissolved using 2 ml of sterile distilled water.
Each rat was administered with 1.5 mg investigative formulation, therefore each rat was administered 300 µl.
At the start of the study, all animals in all treatment groups received 1.5 mg of investigative drug. All drugs given via intravenous route were treated in an ultrasonic bath for five minutes at room temperature.
Tissue fractionation was performed by differential centrifugation yielding 5 fractions: • a. Mitochondrial fraction • b. Cytosol • c. Lysosomes • d. Microsomal fraction • e. Membrane fraction
Animals have been sacrificed 3 hours after the administration of the Siosomes® formulations. The livers have been removed from all animals. The liver homogenate has been prepared from the liver of each treatment group and used for the fractionation of the liver cells.
Each of the animals in the treatment control group for the determination of total platinum in the liver homogenate have been administered the Drug-Siosomes® formulations in the same way/procedures as the treatment groups.
Total platinum concentrations have been determined in each fraction for the treated and untreated animal groups. • Average animal weight = 211.64 ± 21.23 g • Average liver weight = 10.40 ± 1.27 g • Average concentration of total platinum in the liver homogenate of the treatment groups (control) • Group 1: Sugar Organosilicon Compound = 2.34 ± 0.82 µg/g • Group 2: Cationic Sugar Organosilicon Compound = 4.40 ± 1.30 µg/g • Group 3: Anionic Sugar Organosilicon Compound = 2.20 ± 0.90 µg/g • Group 4: Zwitterionic Sugar Organosilicon Compound = 3.10 ± 0.70 µg/g • Group 5: PEGylated Organosilicon Compound = 2.90 ± 1.20 µg/g

[4] = IPSS E011: pharmacokinetics and bioaccumulation of platinum complexes, total platinum in blood and organs by AAS; assay type: in vivo; settings: rats, 1.0 mg intravenous, repeated dose over 7 consecutive days
Excerpt: IPSS E011: A Clinical Study in Rats on the Pharmacokinetics and Bioaccumulation of Platinum Complexes following the Repeated Dose over 7 Consecutive Days of Formulations (PT-11, PT-12 and PT-13), with 7 Days Non-Treatment Period
The following tables and figure 12 illustrate a summary of the generated results.

[5] = Example 18: doxorubicin-siosomes prepared from the single organosilicon compound
[6] = Example 19: doxorubicin-siosomes from organosilicon compounds and combinations

## 2-(Dimethyl nonaoic acid silyl)ethyl-beta-D-PEG-acetylglucosaminether [SIL 53]
[1]; [5]
  Encapsulation efficiency (%): 80-85%
[2]
  Particle size range of the Doxorubicin-siosomes (nm): 180-250 nm

## 2-(Dimethylcholesterylhemisuccinatesilyl)ethyl-beta-D-glucopyranosid sulfate [SIL 59]
[1]; [5]
  Encapsulation efficiency (%): 60-70%
[2]
  Particle size range of the Doxorubicin-siosomes (nm): 180-220 nm

## 2-(Dimethyloctadecylsilyl)ethyl-beta-N-acetylmuramic acid [SIL 60]
[1]; [5]
  Encapsulation efficiency (%): 60-70%
[2]
  Particle size range of the Doxorubicin-siosomes (nm): 200-250 nm

## 2-(Dimethyloctylsilylcholin)ethyl-beta-D-PEG-acetylglucosaminether [SIL 54]
[1]; [5]
  Encapsulation efficiency (%): 80-85%
[2]
  Particle size range of the Doxorubicin-siosomes (nm): 200-250 nm

## 2-(N,N,N,trimethylammonia nonanyllsilyl)ethyl-beta-D-glucopyranosid sulfate [SIL 66]
[1]; [5]
  Encapsulation efficiency (%): 55-70%
[3]
  Average concentration of total platinum in the liver homogenate: 3.10 ± 0.70 µg/g
[2]
  Particle size range of the Doxorubicin-siosomes (nm): 150-220 nm

## 2-(N,N,N,trimethylammonia nonyllsilyl)ethyl-beta-D-glucopyranosid [SIL 67]
[1]; [5]
  Encapsulation efficiency (%): 60-70%
[2]
  Particle size range of the Doxorubicin-siosomes (nm): 200-280 nm

## CCCCCCCCCCCCCCCCCC[Si](CCCCCCCCCCCCCCCCCC)(O[C@@H]1O[C@H](COC(C)=O)[C@@H](OC(C)=O)[C@H](OC(C)=O)[C@H]1OC(C)=O)O[C@@H]1O[C@H](COC(C)=O)[C@@H](OC(C)=O)[C@H](OC(C)=O)[C@H]1OC(C)=O [SIL 14, 1-O-Dioctadecylsilyl-di(2,3,4,6-O-tetraacetyl-β-D-glucopyranosid)]
[1]; [5]
  Encapsulation efficiency (%): 75-80%
[2]
  Particle size range of the Doxorubicin-siosomes (nm): 210-260 nm

## CCCCCCCCCCCCCCCCCC[Si](CCCCCCCCCCCCCCCCCC)(O[C@@H]1O[C@H](COC(C)=O)[C@H](OC(C)=O)[C@H](OC(C)=O)[C@H]1OC(C)=O)O[C@@H]1O[C@H](COC(C)=O)[C@H](OC(C)=O)[C@H](OC(C)=O)[C@H]1OC(C)=O [SIL 15, 1-O-Dioctadecylsilyl-di(2,3,4,6-O-tetraacetyl-β-D-galactopyranosid)]
[1]; [5]
  Encapsulation efficiency (%): 70-78%
[2]
  Particle size range of the Doxorubicin-siosomes (nm): 180-250 nm

## CCCCCCCCCCCC[Si](CCCCCCCCCCCC)(CCCCCCCCCCCC)O[C@@H]1O[C@H](COC(C)=O)[C@@H](OC(C)=O)[C@H](OC(C)=O)[C@H]1OC(C)=O [SIL 18, Tridodecylsilyl-(2,3,4,6-O-tetraacetyl-β-D-glucopyranosid)]
[1]; [5]
  Encapsulation efficiency (%): 55-60%
[1]; [6]
  Encapsulation efficiency (%): 60-80%
[2]
  Particle size range of the Doxorubicin-siosomes (nm): 160-250 nm
  Particle size (nm): 220-350 nm

## CCCCCCCCCC(=O)O[Si](C)(C)OC(=O)CCCCCCCCC [SIL 21.1, Di(decanoyloxy)dimethylsilan]
[1]; [5]
  Encapsulation efficiency (%): 60-75%
[2]
  Particle size range of the Doxorubicin-siosomes (nm): 210-240 nm

## CCCCCCCC[Si](C)(C)CCO[C@@H]1O[C@H](CO)[C@H](O)[C@H](O)[C@H]1O [SIL 22, 2-(Dimethyloctylsilyl)ethyl-β-D-galactopyranosid]
[1]; [6]
  Encapsulation efficiency (%): 55-70%
[2]
  Particle size (nm): 250-300 nm

## CCCCCCCCCC[Si](C)(C)CCO[C@@H]1O[C@H](COS(=O)(=O)O)[C@@H](O)[C@H](O)[C@H]1O [SIL 56, 2-(Dimethyldecylsilyl)ethyl-beta-D-glucopyranosidsulfate]
[1]; [5]
  Encapsulation efficiency (%): 60-70%
[3]
  Average concentration of total platinum in the liver homogenate: 2.20 ± 0.90 µg/g
[2]
  Particle size range of the Doxorubicin-siosomes (nm): 200-220 nm

## CCCCCCCCCC[Si](C)(C)CCO[C@@H]1O[C@H](C(=O)O)[C@@H](O)[C@H](O)[C@H]1O [SIL 57, 2-(Dimethyldecylsilyl)ethyl-beta-D-glucopyranosidcarboxylate]
[1]; [5]
  Encapsulation efficiency (%): 75-80%
[2]
  Particle size range of the Doxorubicin-siosomes (nm): 180-270 nm

## C[Si](C)(CCCCCCCCC(=O)O)CCO[C@@H]1O[C@H](CO)[C@@H](O)[C@H](O)[C@H]1O [SIL 58, 2-(Dimethylnonanoic acid silyl)ethyl-beta-D-glucopyranosid]
[1]; [5]
  Encapsulation efficiency (%): 70-80%
[2]
  Particle size range of the Doxorubicin-siosomes (nm): 150-270 nm

## C[Si](C)(CCCCCCCCCC(=O)O)CCOC1O[C@H](CO)[C@H](O)[C@H](O)[C@H]1N (stereo partly drawn) [SIL 68]
[1]; [5]
  Encapsulation efficiency (%): 70-80%
[2]
  Particle size range of the Doxorubicin-siosomes (nm): 180-220 nm

## CCCCCCCCCC[Si](C)(C)O[C@H]1O[C@H](CO)[C@H](O)[C@H](O)[C@H]1O [Sil 8.1, Decyldimethylsilyl-α-D-galactopyranosid]
[1]; [5]
  Encapsulation efficiency (%): 65-70%
[2]
  Particle size range of the Doxorubicin-siosomes (nm): 100-220 nm

## CCCCCCCCCCCC[Si](C)(C)O[C@H]1O[C@H](CO)[C@@H](O)[C@H](O)[C@H]1O [Sil 9.1, Dodecyldimethylsilyl-α-D-glucopyranosid]
[1]; [5]
  Encapsulation efficiency (%): 60-65%
[2]
  Particle size range of the Doxorubicin-siosomes (nm): 150-200 nm

## N.N.[Cl-].[Cl-].[OH-].[OH-].[Pt+4] [Standard Cis-Oxoplatin, Cis-oxoplatin]
[4]; 7 days non-treatment period, average of 6 rats
  Concentration of Total Platinum in Blood (ng/ml), Average: 1521,92 ng/ml
[4]; 7 days non-treatment period, individual rats
  Concentration of Total Platinum in Blood (ng/ml): 1814,30 ng/ml and 1131,40 ng/ml and 1522,90 ng/ml and 1244,30 ng/ml and 1864,30 ng/ml and 1554,30 ng/ml
[4]; average of 6 rats
  Concentration of Total Platinum in Kidney (µg/g), Average: 14,92 µg/g
  Concentration of Total Platinum in Lung (µg/g), Average: 0,77 µg/g
  Concentration of Total Platinum in Spleen (µg/g), Average: 2,39 µg/g
  Concentration of Total Platinum in Stomach (µg/g), Average: 0,41 µg/g
[4]; individual rats
  Concentration of Total Platinum in Kidney (µg/g): 21,22 µg/g and 13,92 µg/g and 15,88 µg/g and 11,62 µg/g and 11,76 µg/g and 15,12 µg/g
  Concentration of Total Platinum in Lung (µg/g): 0,80 µg/g and 0,62 µg/g and 1,09 µg/g and 0,52 µg/g and 0,71 µg/g and 0,86 µg/g
  Concentration of Total Platinum in Stomach (µg/g): 0,51 µg/g and 0,47 µg/g and 0,38 µg/g and 0,35 µg/g (2×) and 0,37 µg/g
[4]; individual rats, listed as Standard Cis-Oxoplatinum
  Concentration of Total Platinum in Spleen (µg/g): 1,99 µg/g and 2,28 µg/g and 2,35 µg/g and 2,10 µg/g and 3,81 µg/g and 1,80 µg/g
